Results published in the Kinase Knowledgebase extract (Sharma et al. 2016).

Target: PIK3CA (human) (UniProt P42336)
Assay: Inhibition of PIK3CA Kinase Activity

Sequence of PIK3CA (human) (P42336 whole entry, looked up): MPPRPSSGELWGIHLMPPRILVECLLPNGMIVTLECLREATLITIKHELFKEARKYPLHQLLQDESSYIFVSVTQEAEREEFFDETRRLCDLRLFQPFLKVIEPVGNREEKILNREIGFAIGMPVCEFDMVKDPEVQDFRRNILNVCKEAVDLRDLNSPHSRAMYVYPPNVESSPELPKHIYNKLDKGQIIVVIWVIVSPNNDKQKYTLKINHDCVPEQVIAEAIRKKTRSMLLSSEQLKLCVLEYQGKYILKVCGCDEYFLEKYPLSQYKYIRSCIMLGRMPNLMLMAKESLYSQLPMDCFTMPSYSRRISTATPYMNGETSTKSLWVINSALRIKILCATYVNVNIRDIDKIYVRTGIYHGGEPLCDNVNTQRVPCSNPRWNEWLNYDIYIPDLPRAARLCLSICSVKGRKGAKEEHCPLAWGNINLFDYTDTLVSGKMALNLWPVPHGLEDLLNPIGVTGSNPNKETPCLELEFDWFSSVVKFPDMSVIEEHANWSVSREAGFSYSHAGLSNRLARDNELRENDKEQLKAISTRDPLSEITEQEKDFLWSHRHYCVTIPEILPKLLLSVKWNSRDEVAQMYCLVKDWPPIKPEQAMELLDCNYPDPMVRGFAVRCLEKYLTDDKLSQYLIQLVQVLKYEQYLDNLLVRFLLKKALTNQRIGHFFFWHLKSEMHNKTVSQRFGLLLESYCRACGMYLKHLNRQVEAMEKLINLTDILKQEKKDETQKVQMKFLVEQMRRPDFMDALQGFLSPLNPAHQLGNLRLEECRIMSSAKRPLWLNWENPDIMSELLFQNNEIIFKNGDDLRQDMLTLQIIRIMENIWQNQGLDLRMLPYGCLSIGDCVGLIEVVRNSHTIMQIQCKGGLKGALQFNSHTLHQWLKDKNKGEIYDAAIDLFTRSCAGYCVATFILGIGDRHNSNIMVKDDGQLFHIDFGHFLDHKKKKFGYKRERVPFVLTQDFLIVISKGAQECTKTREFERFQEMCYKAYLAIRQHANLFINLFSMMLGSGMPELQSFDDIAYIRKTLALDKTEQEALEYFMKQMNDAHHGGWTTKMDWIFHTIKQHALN

Row | IC50 [nM] | SMILES
1 | 50 to 250 | CCCc1nc2cc(-c3ccc4c(c3)CN(c3ncnc5c3CC(C)(C)CC5)CCO4)cnc2[nH]1
2 | 10 to 50 | CC1(C)CCc2ncnc(N3CCOc4ccc(-c5cnc6[nH]c(CF)nc6c5)cc4C3)c2C1
3 | 50 to 250 | CCc1c(C)ncnc1N1CCOc2ccc(-c3cnc4nc(C)[nH]c4c3)cc2C1
4 | ≤ 10 | CC(CO)NS(=O)(=O)c1cc(-c2ccc3c(c2)CN(c2ncnc4c2CC(C)(C)CC4)CCO3)cnc1N (configuration not stated)
5 | 50 to 250 | CC1(C)CCc2ncnc(N3CCOc4ccc(-c5cnc(N)c(S(=O)(=O)N6CCNCC6)c5)cc4C3)c2C1
6 | 50 to 250 | CCc1c(C)ncnc1N1CCOc2ccc(-c3ccc4nc(C)[nH]c4c3)cc2C1
7 | 50 to 250 | CC[C@H]1CCc2c(ncnc2N2CCOc3ccc(-c4cnc5nc([C@H](C)N)[nH]c5c4)cc3C2)C1
8 | ≤ 10 | COc1ccc2c(N3CCOc4ccc(-c5cnc6nc(N)[nH]c6c5)cc4C3)nc(C)nc2c1
9 | ≤ 10 | Cc1nc(N)nc(N2CCOc3ccc(-c4cnc5[nH]cnc5c4)cc3C2)c1Cc1ccc(F)cc1
10 | 10 to 50 | Cc1nc2ccc(-c3ccc4c(c3)CN(c3ncnc(C)c3Cc3ccc(C(F)(F)F)cc3)CCO4)cc2[nH]1
11 | 50 to 250 | CN(C)S(=O)(=O)c1cncc(-c2ccc3c(c2)CN(c2ncnc4c2CC(C)(C)CC4)CCO3)c1
12 | 10 to 50 | COCCNS(=O)(=O)c1cc(-c2ccc3c(c2)CN(c2ncnc4c2CC(C)(C)CC4)CCO3)cnc1N
13 | ≤ 10 | Cc1nc(N)nc(N2CCOc3ccc(-c4cnc5sc(N)nc5c4)cc3C2)c1Cc1ccc(F)cc1
14 | ≤ 10 | Cc1nc2ccc(-c3ccc4c(c3)CN(c3ccnc5cc(F)ccc35)CCO4)cc2[nH]1
15 | ≤ 10 | Cc1nc2cc(-c3ccc4c(c3)CN(c3nc([C@H]5CCCN5)nc5c3CC(C)(C)CC5)CCO4)cnc2[nH]1
16 | 250 to 1000 | Cn1ccc2cc(-c3ccc4c(c3)CN(c3ccnc5ccccc35)CCO4)cnc21
17 | 10 to 50 | COC(=O)Nc1nc2ccc(-c3ccc4c(c3)CN(c3ncnc5c3CC(C)(C)CC5)CCO4)cc2[nH]1
18 | ≤ 10 | Cc1nc2cc(-c3ccc4c(c3)CN(c3nc(CN5CCCC5)nc5c3CC(C)(C)CC5)CCO4)cnc2[nH]1
19 | 50 to 250 | Cc1cc(Br)c2ncnc(N3CCOc4ccc(-c5ccc6nc(C)[nH]c6c5)cc4C3)c2c1
20 | 10 to 50 | COc1ccc(-c2ccc3c(c2)CN(c2nc(CN(C)C)nc4c2CC(C)(C)CC4)CCO3)cc1S(C)(=O)=O
21 | 250 to 1000 | COc1cc2c(N3CCOc4ccc(-c5ccc6nc(C)[nH]c6c5)cc4C3)ncnc2cc1OCc1ccccc1
22 | 10 to 50 | CC1(C)CCc2ncnc(N3CCOc4ccc(-c5cnc(N)c(S(=O)(=O)NCC6CCNCC6)c5)cc4C3)c2C1
23 | 250 to 1000 | CN(C)Cc1nc2c(c(N3CCOc4ccc(-c5ccc6scnc6c5)cc4C3)n1)CC(C)(C)CC2
24 | 50 to 250 | CC(C)(O)CC[S+]([O-])c1cc(-c2ccc3c(c2)CN(c2ncnc4c2CC(C)(C)CC4)CCO3)cnc1N (configuration not stated)
25 | 10 to 50 | COc1ccc2c(N3CCOc4ccc(-c5cnc(N)c([S+]([O-])C[C@@H](C)CO)c5)cc4C3)ncnc2c1 (some centres not stated)
26 | 50 to 250 | Cc1nc2ccc(-c3ccc4c(c3)CN(c3ncnc5c3CCC(C)(C)C5)CCO4)cc2[nH]1
27 | 50 to 250 | COc1cc2nccc(N3CCOc4ccc(-c5ccc(-c6ncc[nH]6)cc5)cc4C3)c2cc1OC
28 | 50 to 250 | Cc1nc2cc(-c3ccc4c(c3)CN(c3nc(CN(C)C)nc5c3CC(C)(C)CC5)CCO4)c(F)cc2[nH]1
29 | 10 to 50 | Cc1nc2ccc(-c3ccc4c(c3)CN(c3nc(CN(C)C)nc(C)c3C)CCO4)cc2[nH]1
30 | 250 to 1000 | CC1(C)CCc2ncnc(N3CCOc4ccc(-c5cnc6c(c5)OCCN6)cc4C3)c2C1

More lines, now with the values behind:

Row | SMILES | IC50 [nM]
31 | Cc1nc2ccc(-c3ccc4c(c3)CN(c3nc(CNCCF)nc5c3CC(C)(C)CC5)CCO4)cc2[nH]1 | ≤ 10
32 | c1ccc2c(N3CCOc4ccc(-c5cn[nH]c5)cc4C3)ccnc2c1 | 250 to 1000
33 | Cc1ncnc(N2CCOc3ccc(-c4ccc(N)nn4)cc3C2)c1Cc1ccc(F)cc1 | 250 to 1000
34 | Cc1nc(CN(C)C)nc(N2CCOc3ccc(-c4cnc5sc(N)nc5c4)cc3C2)c1CC(C)C | 50 to 250
35 | Cc1nc2ccc(-c3ccc4c(c3)CN(c3nc(CN5CC[C@@H](F)C5)nc5c3CC(C)(C)CC5)CCO4)cc2[nH]1 | 10 to 50
36 | Cc1ncnc(N2CCOc3ccc(-c4cnc(N)nc4)cc3C2)c1Cc1ccc(F)cc1 | 50 to 250
37 | CNC1CN(S(=O)(=O)c2cc(-c3ccc4c(c3)CN(c3ncnc5c3CC(C)(C)CC5)CCO4)cnc2N)C1 | 10 to 50
38 | CC1(C)CCc2ncnc(N3CCOc4ccc(-c5cnc(N)c(S(=O)(=O)NC6CC7CCC(C6)N7)c5)cc4C3)c2C1 (configuration not stated) | 50 to 250
39 | Cc1nc2ncc(-c3ccc4c(c3)CN(c3nc(CNC(C)C5CC5)nc5c3CC(C)(C)CC5)CCO4)cc2[nH]1 (configuration not stated) | 10 to 50
40 | COc1ccc2c(N3CCOc4ccc(-c5cnc6sc(N)nc6c5)cc4C3)nc(C)nc2c1 | ≤ 10
41 | Cc1nc2ccc(-c3ccc4c(c3)CN(c3nc(CNC5CC5)nc(C)c3Cc3ccc(F)cc3)CCO4)cc2[nH]1 | 10 to 50
42 | Cc1nc2ncc(-c3ccc4c(c3)CN(c3ncnc(Cl)c3C)CCO4)cc2[nH]1 | 50 to 250
43 | CN(C)Cc1nc2c(c(N3CCOc4ccc(-c5ccc(Cl)c(C(N)=O)c5)cc4C3)n1)CC(C)(C)CC2 | 250 to 1000
44 | COc1ccc2c(N3CCOc4ccc(-c5cnc6[nH]cnc6c5)cc4C3)nc(CN(C)C)nc2c1 | ≤ 10
45 | Cc1nc2ccc(-c3ccc4c(c3)CN(c3ncnc(C)c3Cc3ccccc3)CCO4)cc2[nH]1 | 10 to 50
46 | Cc1nc2cc(-c3ccc4c(c3)CN(c3nc(CN(C)C)nc(C)c3C(C)C)CCO4)cnc2[nH]1 | ≤ 10
47 | COc1cc2nccc(N3CCOc4ccc(-c5ccc6nc(N)[nH]c6c5)cc4C3)c2cc1OC | 10 to 50
48 | COCC1CCc2c(ncnc2N2CCOc3ccc(-c4cnc5nc(C)[nH]c5c4)cc3C2)C1 (configuration not stated) | 10 to 50
49 | c1cc(N2CCOc3ccc(-c4ccc5nc[nH]c5c4)cc3C2)ncn1 | 250 to 1000

Row | SMILES | IC50 [nM]
50 | Cc1nc2ncc(-c3ccc4c(c3)CN(c3ncnc5c3CC(C)CC5)CCO4)cc2[nH]1 (configuration not stated) | 10 to 50
51 | Cc1nc(C)c(Cc2ccc(F)cc2)c(N2CCOc3ccc(-c4ccc5nc(C)[nH]c5c4)cc3C2)n1 | 10 to 50
52 | COc1ccc2c(N3CCOc4ccc(-c5ccc6[nH]c(C)nc6c5)cc4C3)nc(CN(C)C)nc2c1 | ≤ 10
53 | CC1(C)C=Cc2ncnc(N3CCOc4ccc(-c5ccc(-c6ncc[nH]6)cc5)cc4C3)c2C1 | 10 to 50
54 | CC1(C)CCc2ncnc(N3CCOc4ccc(-c5cnc6[nH]c(C7CC7)nc6c5)cc4C3)c2C1 | 10 to 50
55 | C=CCc1c(C)nc(CN(C)C)nc1N1CCOc2ccc(-c3cnc4sc(N)nc4c3)cc2C1 | ≤ 10
56 | CCNc1nc2ccc(-c3ccc4c(c3)CN(c3cc(C)nc5cc(F)ccc35)CCO4)cc2[nH]1 | ≤ 10
57 | Cc1nc2ccc(-c3ccc4c(c3)CN(c3ncnc(C)c3Cc3cc(F)cc(Cl)c3)CCO4)cc2[nH]1 | 10 to 50
58 | Cc1nc2cc(-c3ccc4c(c3)CN(c3nc(CO)nc(C)c3Cc3ccc(F)cc3)CCO4)ccc2[nH]1 | ≤ 10
59 | Cc1nc(C)c(C(C)C)c(N2CCOc3ccc(-c4cnc5nc(C)[nH]c5c4)cc3C2)n1 | 10 to 50
60 | CC1=CC(C)(C)Cc2c1ncnc2N1CCOc2ccc(-c3cnc(N)c(S(=O)(=O)N[C@@H]4CCN(C)C4)c3)cc2C1 | 50 to 250
61 | Cc1nc(CN(C)C)nc(N2CCOc3ccc(-c4cnc5sc(N)nc5c4)cc3C2)c1C(C)C | ≤ 10
62 | Cc1nc(N)nc(N2CCOc3ccc(-c4ccc5[nH]cnc5c4)cc3C2)c1Cc1ccc(F)cc1 | ≤ 10
63 | CN1CC[C@@H](NS(=O)(=O)c2cc(-c3ccc4c(c3)CN(c3ncnc5c3CC(C)(C)CC5)CCO4)cnc2N)C1 | 50 to 250
64 | CN(C)c1nc2ccc(-c3ccc4c(c3)CN(c3ccnc5ccccc35)CCO4)cc2[nH]1 | 250 to 1000
65 | CC1(C)CCc2nc(CC#N)nc(N3CCOc4ccc(-c5cnc6sc(N)nc6c5)cc4C3)c2C1 | 10 to 50
66 | COc1ccc2ncnc(N3CCOc4ccc(-c5ccc6nc(C)[nH]c6c5)cc4C3)c2c1 | 50 to 250
67 | CN(C)CCNS(=O)(=O)c1cc(-c2ccc3c(c2)CN(c2ncnc4c2CC(C)(C)CC4)CCO3)cnc1N | 50 to 250
68 | CC1(C)CCc2ncnc(N3CCOc4ccc(-c5cnc(N)c(S(=O)(=O)NCC(N)=O)c5)cc4C3)c2C1 | 10 to 50

Row | SMILES | IC50 [nM]
69 | CCNc1nc2ncc(-c3ccc4c(c3)CN(c3nc(C)nc5cc(OC)ccc35)CCO4)cc2[nH]1 | ≤ 10
70 | CC1(C)CCc2ncnc(N3CCOc4ccc(-c5cnc(N)c(S(=O)(=O)NCC(F)(F)F)c5)cc4C3)c2C1 | 50 to 250
71 | COc1ccc(-c2ccc3c(c2)CN(c2nc(CN(C)C)nc4c2CC(C)(C)CC4)CCO3)cc1C(C)=O | 250 to 1000
72 | CC1(C)CCc2ncnc(N3CCOc4ccc(-c5cnc(N)nc5)cc4C3)c2C1 | 250 to 1000
73 | C=C[C@H]1CCCc2c(ncnc2N2CCOc3ccc(-c4cnc5nc(C)[nH]c5c4)cc3C2)C1 | 10 to 50
74 | c1ccc2c(N3CCOc4ccc(-c5ccc6nccnc6c5)cc4C3)ccnc2c1 | 50 to 250
75 | Cc1c(NC2CCN(C)CC2)ncnc1N1CCOc2ccc(-c3cnc4nc(C5CC5)[nH]c4c3)cc2C1 | 10 to 50
76 | Cc1nc(CN(C)C)nc(N2CCOc3ccc(-c4ccc5[nH]c(CF)nc5c4)cc3C2)c1Cc1ccc(F)cc1 | ≤ 10
77 | Cc1nc(CN(C)C)nc(N2CCOc3ccc(-c4ccc5[nH]c(CF)nc5c4)cc3C2)c1C(C)C | ≤ 10
78 | CCNc1nc2ccc(-c3ccc4c(c3)CN(c3ncnc5cc(OC)c(OC)cc35)CCO4)cc2[nH]1 | 10 to 50
79 | COc1ccc2c(N3CCOc4ccc(-c5ccc(-c6c[nH]cn6)cc5)cc4C3)nc(C)nc2c1 | 50 to 250
80 | COc1ccc(-c2ccc3c(c2)CN(c2nc(CN(C)C)nc4c2CC(C)(C)CC4)CCO3)cc1Cl | 250 to 1000
81 | Cc1nc2ccc(-c3ccc4c(c3)CN(c3ncnc5c3CC(C)(C)CC5)CCO4)cc2[nH]1 | 10 to 50
82 | Cc1nc2ncc(-c3ccc4c(c3)CN(c3nc(CNCC(F)(F)F)nc5c3CC(C)(C)CC5)CCO4)cc2[nH]1 | 50 to 250
83 | CN(C)C(=O)c1cc(-c2ccc3c(c2)CN(c2ncnc4c2CC(C)(C)CC4)CCO3)cnc1N | 250 to 1000
84 | Cc1nc2ncc(-c3ccc4c(c3)CN(c3ncnc(C)c3CC3CC3)CCO4)cc2[nH]1 | 50 to 250
85 | CC[C@@H](C)NCc1nc2c(c(N3CCOc4ccc(-c5cnc6nc(C)[nH]c6c5)cc4C3)n1)CC(C)(C)CC2 | 10 to 50
86 | Cc1nc(CN(C)C)nc(N2CCOc3ccc(-c4cnc5sc(N)nc5c4)cc3C2)c1-c1ccccc1 | 10 to 50
87 | CC1(C)CCc2ncnc(N3CCOc4ccc(-c5cnc(N)c(S(=O)(=O)N[C@H]6CCNC6)c5)cc4C3)c2C1 | 10 to 50
